Laboratory results: patent US20210379040A1, “COMBINATION TREATMENT OF LIVER DISORDERS” (Terns Pharmaceuticals, Inc., priority 2020, published 2021)

Legend:
dog hepatocytes = experiment: In vitro metabolic stability in cryopreserved hepatocytes (dog); type: in vitro ADME; details: Beagle Dog
Description: In vitro half-life values were determined and scaled to predict hepatic clearance (CLpred) and hepatic extraction using the well-stirred liver model with no correction for plasma protein as described in Obach et al., The Prediction of Human Pharmacokinetic Parameters from Preclinical and In Vitro Metabolism Data, J. of Pharmacology and Experimental Therapeutics, vol. 283, no. 1, pp. 46-58 (1997).

[1] = Pharmacokinetics assay, monkey; type: in vivo, cynomolgus monkeys; details: plasma, iv, Cynomolgus Monkey, intravenously 0.3 mg/kg
Source text: Results are shown in FIG. 1A (IV administration) and FIG. 1B (oral administration), and in Table 2. […] Smaller Vdss in monkeys is correlated with higher plasma protein binding.

[2] = Tissue distribution of radiolabeled (14C) compound, oral 5 mg/kg; type: in vivo; details: Long-Evans rats, oral 5 mg/kg (100 μCi/kg), up to 168 hours
Description: Plasma, liver, small intestine, cecum, kidney, lung, heart and skin tissue samples were collected up to 168 hours, and the amount of radioactive material at various time points was measured.

[3] = Metabolism and excretion of radiolabeled (14C) compound; type: in vivo; details: SD rats, bile duct intact or cannulated, orally 5 mg/kg or intravenously 2 mg/kg
Description: Blood, bile, feces, and urine samples were collected from each rat for up to 168 hours.

[4] = Clinical study, First Study (14 days, healthy volunteers); type: in vivo; details: healthy human volunteers, oral daily 5, 75, 200 or 400 mg for 14 days
mouse model of NASH = experiment: Mouse model of NASH (high fat diet + CCl4); type: in vivo, C57/BL6J mice
Description: Hematoxylin & Eosin (H&E) and Sirius Red histological staining of liver tissue was used to quantitate NAFLD activity score (NAS), steatosis, ballooning, inflammation and fibrosis. […] Gene expression of RNA was analyzed by RT-qPCR and RNAseq.
NAS is calculated based upon liver steatosis, inflammation, and ballooning and was determined by analysis of liver tissue histology using H&E stain. […] Hepatocellular ballooning is a form of liver cell injury associated with cell swelling and is also measured by H&E stained liver sections. The ballooning score is calculated as follows: 0-no hepatocyte ballooning; 1-few ballooning hepatocytes; 2-many hepatocytes with prominent ballooning.
Liver fibrosis was quantified by histological analysis of the percentage of Sirius Red-positive liver sections. […] Liver triglycerides were measured from liver tissue using a biochemical analyzer (Hitachi-700).

[5] = system: FXR-regulated gene expression in liver and ileum; experiment: Mechanism of action: tissue RNA by RT-qPCR and RNAseq after single oral dose; details: C57BL/6 mice, single oral 10 mg/kg, 6 hours
Description: The RNA was analyzed by RT-qPCR and RNAseq.
For RNAseq analysis, mRNA was extracted from total liver and sequenced using standard Illumina library preparation and sequencing protocols. Differentially expressed genes (DEG) were determined using RSEM and edgeR software packages and analyzed using Advaita Bio's iPathwayGuide software.

SSAO = molecular target: T1, SSAO (Homo sapiens, UniProt Q16853); experiment: Biochemical activity, SSAO
T1 sequence (Q16853 1-763): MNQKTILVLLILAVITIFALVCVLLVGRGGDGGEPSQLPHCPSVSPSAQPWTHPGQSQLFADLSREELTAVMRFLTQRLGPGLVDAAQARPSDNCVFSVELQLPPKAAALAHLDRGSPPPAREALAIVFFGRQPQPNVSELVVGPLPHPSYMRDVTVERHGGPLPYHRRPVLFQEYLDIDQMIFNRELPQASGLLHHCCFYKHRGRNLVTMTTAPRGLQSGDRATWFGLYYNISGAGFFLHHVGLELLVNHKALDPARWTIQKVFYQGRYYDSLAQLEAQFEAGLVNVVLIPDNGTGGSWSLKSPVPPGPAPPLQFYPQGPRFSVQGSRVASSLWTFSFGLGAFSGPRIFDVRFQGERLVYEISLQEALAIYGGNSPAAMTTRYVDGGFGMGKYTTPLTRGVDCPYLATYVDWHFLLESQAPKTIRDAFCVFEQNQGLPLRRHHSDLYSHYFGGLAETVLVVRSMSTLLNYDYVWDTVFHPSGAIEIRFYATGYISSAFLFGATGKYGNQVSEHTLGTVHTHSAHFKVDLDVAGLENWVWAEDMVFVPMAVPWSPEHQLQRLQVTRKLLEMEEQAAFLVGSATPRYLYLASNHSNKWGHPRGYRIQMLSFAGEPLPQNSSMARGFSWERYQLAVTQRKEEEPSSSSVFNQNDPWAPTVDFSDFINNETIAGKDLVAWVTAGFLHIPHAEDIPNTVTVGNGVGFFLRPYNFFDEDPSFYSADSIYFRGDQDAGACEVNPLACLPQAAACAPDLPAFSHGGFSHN

plasma SSAO = molecular target: T2, plasma SSAO (Homo sapiens, UniProt Q16853); experiment: Multiple once daily dose study: plasma amine oxidase activity and methylamine; type: in vivo
T2 construct: from tissue; host or cells: plasma of healthy participants
T2 sequence (Q16853 27-763 limits assumed): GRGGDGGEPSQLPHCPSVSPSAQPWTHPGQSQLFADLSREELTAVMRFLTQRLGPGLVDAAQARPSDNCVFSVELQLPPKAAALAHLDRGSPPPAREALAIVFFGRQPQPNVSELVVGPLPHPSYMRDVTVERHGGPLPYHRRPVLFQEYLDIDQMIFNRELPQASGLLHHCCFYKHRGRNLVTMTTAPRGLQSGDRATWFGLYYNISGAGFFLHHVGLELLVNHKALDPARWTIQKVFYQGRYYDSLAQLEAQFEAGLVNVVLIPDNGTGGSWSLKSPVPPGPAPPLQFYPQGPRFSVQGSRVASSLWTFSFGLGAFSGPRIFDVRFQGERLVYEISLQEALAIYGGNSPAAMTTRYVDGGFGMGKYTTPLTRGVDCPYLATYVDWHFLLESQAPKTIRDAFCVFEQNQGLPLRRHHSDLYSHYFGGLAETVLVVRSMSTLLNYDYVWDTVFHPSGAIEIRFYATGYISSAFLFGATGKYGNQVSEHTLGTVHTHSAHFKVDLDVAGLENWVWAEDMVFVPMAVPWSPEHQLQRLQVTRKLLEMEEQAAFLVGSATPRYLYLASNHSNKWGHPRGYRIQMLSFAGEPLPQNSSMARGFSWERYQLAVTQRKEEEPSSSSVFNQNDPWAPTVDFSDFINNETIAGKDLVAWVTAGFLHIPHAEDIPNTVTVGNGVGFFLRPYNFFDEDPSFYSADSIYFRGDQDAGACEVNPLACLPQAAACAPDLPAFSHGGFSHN
Description: 3 groups of 8 healthy participants were randomized to receive multiple once daily (QD) doses of Compound 2 or matching placebo in a 3:1 ratio for 7 days (1 mg and 4 mg) or 14 days (10 mg). Plasma levels of Compound 2 and PD biomarkers (plasma amine oxidase activity and methylamine levels) were determined at pre-dose and various timepoints post-dose. Safety was assessed for up to 14 days after last dose.

[6] = NASH mice, 10, 30, 100 mg/kg, vs untreated NASH mice

Structure (SMILES): Cn1cc(C(=O)O)c2ccc(N3CCC(OCc4c(-c5c(Cl)cccc5Cl)noc4C4CC4)CC3)cc21 [Compound 1]
- Hepatic Extraction (dog hepatocytes): 71.0 ± 2.49%
- In vitro Metabolic CLpred (dog hepatocytes; well-stirred liver model): 22 ± 0.83 mL/min/kg
- clearance [1]: 5 mL/min/kg
- half-life ([1]; read-out: IV Terminal t1/2 (converted)): 1.32 h
- Vd ([1]; read-out: Vdss): 0.6 L/kg
- tissues with the most radioactive material [2]: Liver, small intestine, and cecum had the most radioactive material
- metabolism and major elimination pathway [3]: metabolized into an acyl glucuronide metabolite prior to biliary excretion
- incidences of pruritus [4]: no incidences of pruritus were observed
- CYP7A1 expression (CPM) Relative to Vehicle (mouse model of NASH; NASH mice liver, 30 mg/kg): 0.02
- CYP8B1 expression (CPM) Relative to Vehicle (mouse model of NASH; NASH mice liver, 30 mg/kg): 0.007
- liver triglycerides (mouse model of NASH; NASH mice, 100 mg/kg): statistically significant reduced triglyceride levels
- serum triglyceride concentration (mouse model of NASH; NASH mice, 100 mg/kg): statically significant reduction
- serum ALT level (mouse model of NASH; NASH mice, 10, 30, 100 mg/kg): reduced
- serum AST level (mouse model of NASH; NASH mice, 10, 30, 100 mg/kg): reduced
- ballooning (score) (mouse model of NASH; [6]): significantly reduced
- inflammation (score) (mouse model of NASH; [6]): significantly reduced
- steatosis (score) (mouse model of NASH; [6]): significantly reduced
- serum total cholesterol level (mouse model of NASH; NASH mice, 10, 30, and 100 mg/kg): statistically significant reduction
- NAFLD Activity Score (NAS) (mouse model of NASH; NASH mice, 10, 30, or 100 mg/kg daily oral, 28 days, vs untreated NASH mice): significantly lower NAS score
- collagen, type 1, alpha 1 expression in the liver (mouse model of NASH; NASH mice, 10, 30, or 100 mg/kg, vs control NASH mice): decreased
- Liver fibrosis (Sirius Red-positive area) (mouse model of NASH; NASH mice, 10, 30 or 100 mg/kg, vs untreated NASH control): statistically significant reduced fibrosis
- induction of FXR-specific genes, liver versus ileum (RT-qPCR) [5]: preferentially induces FXR-specific genes in the liver

Structure (SMILES): COC1CCN(c2ncc(OC/C(=C/F)CN)cn2)CC1 [Compound 2]
- IC50 (SSAO): 6.5 nM
- duration of continued suppression of plasma SSAO activity after last dose (plasma SSAO; 10 mg cohort (QD, 14 days)): up to 2 weeks
- inhibition of plasma SSAO activity (plasma SSAO; Day 1, all dose cohorts): Near complete inhibition
- Plasma methylamine levels (plasma SSAO; QD 1, 4, 10 mg): increased in a greater than dose proportional manner
